Laboratory results reported in patent publication US20120108501A1, “Protease Inhibitors” (priority 2009, published 2012).

Assay: Pharmacokinetics of released PEGylated protease inhibitor following P.O. administration of prodrugs in rats
Type: in vivo, male Sprague-Dawley rats
Design: AUCall Mean: concentration or dose not given beside the values; C24 Mean: unit not given here
Conditions: rats (n = 4-5); for C24 Mean: concentration at 24 hours
Protocol: Pharmacokinetic analysis of protease inhibitors described herein was conducted. To evaluate the pharmacokinetics of PEGylated protease inhibitor conjugates with releasable lipophilic attachments, test compounds were administered to male Sprague-Dawley rats.
At various times following test article administration, serial blood samples were collected from indwelling jugular vein catheters and transferred to micro-tubes containing 7.5 μL of 20% w/v K2EDTA as an anticoagulant. Following processing of the blood samples to plasma (10 minutes at 10000 rpm, Centrifuge Model: Kubota 3500), plasma concentrations of the test article or corresponding PEGylated molecule released from the test article was measured using LC-MS/MS methods. Pharmacokinetic parameters were estimated using noncompartmental methods.

[1] = mPEG3-atazanavir in plasma after PO administration of mPEG3-ATV or of the listed prodrug
[2] = mPEG6-atazanavir in plasma after PO administration of mPEG6-ATV or of the listed prodrug
[3] = mPEG5-atazanavir in plasma after PO administration of mPEG5-ATV or of the listed prodrug

| AUCall Mean [2] | Cmax Mean [2] | MRT last Mean [2] | Tmax Median [2] | AUCall Mean [3] | Cmax Mean [3] | MRT last Mean [3] | Tmax Median [3] | Compound | further results |
| --- | --- | --- | --- | --- | --- | --- | --- | --- | --- |
|  |  |  |  |  |  |  |  | CCCCCCCCCCCCCCCCOCC(COP(=O)(O)OC(CN(Cc1ccc(-c2ccccn2)cc1)NC(=O)C(NC(=O)OC)C(C)(C)C)C(Cc1ccccc1)NC(=O)C(NC(=O)OCCOCCOCCOC)C(C)(C)C)OC (stereo not drawn) [PEG3-Atazanavir Monophospholipid, mPEG3-atazanavir monophospholipid] | AUCall Mean [1]: 7.72 ng·h/mL; Cmax Mean [1]: 18.7 ng/mL; MRT last Mean [1]: 0.640 h; Tmax* Median [1]: 0.250 h |
| 152 ng·h/mL | 14.2 ng/mL | 13.1 h | 1.50 h |  |  |  |  | COCCOCCOCCOCCOCCOCCOC(=O)NC(C(=O)NC(Cc1ccccc1)C(CN(Cc1ccc(-c2ccccn2)cc1)NC(=O)C(NC(=O)OC)C(C)(C)C)OC(=O)C(CC(C)C)NC(=O)C(N)CC(C)C)C(C)(C)C.Cl (stereo not drawn) [Leu-Leu-mPEG6-ATV, Leu-Leu-mPEG6-Atazanavir Hydrochloride] |  |
|  |  |  |  | 39.1 ng·h/mL | 6.90 ng/mL | 4.04 h | 0.750 h | CCC(=O)OC(CN(Cc1ccc(-c2ccccn2)cc1)NC(=O)C(NC(=O)OC)C(C)(C)C)C(Cc1ccccc1)NC(=O)C(NC(=O)OCCOCCOCCOCCOCCOC)C(C)(C)C (stereo not drawn) [C2H5CO-mPEG5-ATV, mPEG5-Atazanavir Propionate] |  |
|  |  |  |  | 9.14 ng·h/mL | 1.09 ng/mL | 6.89 h | 1.00 h | COCCOCCOCCOCCOCCOC(=O)NC(C(=O)NC(Cc1ccccc1)C(CN(Cc1ccc(-c2ccccn2)cc1)NC(=O)C(NC(=O)OC)C(C)(C)C)OC(=O)C(N)C(C)C)C(C)(C)C.Cl [mPEG5-ATV-L-valine, mPEG5-Atazanavir-L-valine HCl] |  |
| 418 ng·h/mL | 37.2 ng/mL | 13.8 h | 1.50 h |  |  |  |  | COCCOCCOCCOCCOCCOCCOC(=O)N[C@H](C(=O)N[C@@H](Cc1ccccc1)[C@H](CN(Cc1ccc(-c2ccccn2)cc1)NC(=O)[C@@H](NC(=O)OC)C(C)(C)C)OC(=O)[C@H](Cc1ccccc1)NC(=O)[C@@H](N)CC(C)C)C(C)(C)C.Cl [Leu-Phe-mPEG6-ATV, Leu-Phe-mPEG6-Atazanavir Hydrochloride] |  |
|  |  |  |  |  |  |  |  | COCCOCCOCCOC(=O)N[C@H](C(=O)N[C@@H](Cc1ccccc1)[C@H](CN(Cc1ccc(-c2ccccn2)cc1)NC(=O)[C@@H](NC(=O)OC)C(C)(C)C)OC(C)=O)C(C)(C)C [Acetyl-mPEG3-ATV, O-Acetyl-mPEG3-Atazanavir] | AUCall Mean [1]: 5.63 ng·h/mL; Cmax Mean [1]: 2.43 ng/mL; MRT last Mean [1]: 1.01 h; Tmax* Median [1]: 0.750 h |
| 97.6 ng·h/mL | 26.8 ng/mL | 4.93 h | 0.250 h |  |  |  |  | COCCOCCOCCOCCOCCOCCOC(=O)N[C@H](C(=O)N[C@@H](Cc1ccccc1)[C@@H](O)CN(Cc1ccc(-c2ccccn2)cc1)NC(=O)[C@@H](NC(=O)OC)C(C)(C)C)C(C)(C)C [PEG6-ATV, mPEG6-atazanavir] |  |
|  |  |  |  |  |  |  |  | COCCOCCOCCOC(=O)N[C@H](C(=O)N[C@@H](Cc1ccccc1)[C@H](CN(Cc1ccc(-c2ccccn2)cc1)NC(=O)[C@@H](NC(=O)OC)C(C)(C)C)OCOCCOC)C(C)(C)C [mPEG3 ATV-Methyl ethyl methyl ether, mPEG3-Atazanavir Methyl Ethyl Methyl Ether] | AUCall Mean [1]: 4.10 ng·h/mL; Cmax Mean [1]: 0.951 ng/mL; MRT last Mean [1]: 1.93 h; Tmax* Median [1]: 2.00 h |
|  |  |  |  |  |  |  |  | COCCOCCOCCOC(=O)NC(C(=O)NC(Cc1ccccc1)C(CN(Cc1ccc(-c2ccccn2)cc1)NC(=O)C(NC(=O)OC)C(C)(C)C)OC(=O)C(N)C(C)C)C(C)(C)C.Cl [mPEG3-ATV-L-valine, mPEG3-Atazanavir-L-valine HCl] | AUCall Mean [1]: 70.4 ng·h/mL; Cmax Mean [1]: 11.8 ng/mL; MRT last Mean [1]: 4.45 h; Tmax* Median [1]: 0.500 h |
| 40.6 ng·h/mL | 2.07 ng/mL | 13.8 h | 4.00 h |  |  |  |  | mPEG6-atazanavir-ethoxy-CME-Leu-Leu [mPEG6-ATV-Ethoxy-CM-Leu-Leu] |  |
|  |  |  |  | 389 ng·h/mL | 57.6 ng/mL | 9.61 h | 0.750 h | COCCOCCOCCOCCOCCOC(=O)N[C@H](C(=O)N[C@@H](Cc1ccccc1)[C@@H](O)CN(Cc1ccc(-c2ccccn2)cc1)NC(=O)[C@@H](NC(=O)OC)C(C)(C)C)C(C)(C)C [PEG5-ATV, mPEG5-atazanavir] |  |
| 13.2 ng·h/mL | 1.86 ng/mL | 8.28 h | 2.00 h |  |  |  |  | CCC(=O)O[C@@H](CN(Cc1ccc(-c2ccccn2)cc1)NC(=O)[C@@H](NC(=O)OC)C(C)(C)C)[C@H](Cc1ccccc1)NC(=O)[C@@H](NC(=O)OCCOCCOCCOCCOCCOCCOC)C(C)(C)C [C2H5CO-mPEG6-ATV, mPEG6-Atazanavir Propionate] |  |
|  |  |  |  |  |  |  |  | CCCC(=O)O[C@@H](CN(Cc1ccc(-c2ccccn2)cc1)NC(=O)[C@@H](NC(=O)OC)C(C)(C)C)[C@H](Cc1ccccc1)NC(=O)[C@@H](NC(=O)OCCOCCOCCOC)C(C)(C)C [C3H7CO-mPEG3-ATV, mPEG3-Atazanavir Butyrate] | C24 Mean [1]: 0.00; AUCall Mean [1]: 11.4 ng·h/mL; Cmax Mean [1]: 3.08 ng/mL; MRT last Mean [1]: 1.56 h; Tmax* Median [1]: 1.00 h |
| 73.1 ng·h/mL | 4.05 ng/mL | 18.9 h | 12.0 h |  |  |  |  | COCCOCCOCCOCCOCCOCCOC(=O)NC(C(=O)NC(Cc1ccccc1)C(CN(Cc1ccc(-c2ccccn2)cc1)NC(=O)C(NC(=O)OC)C(C)(C)C)OC(=O)C(N)C(C)C)C(C)(C)C.Cl [mPEG6-ATV-L-valine, mPEG6-Atazanavir-L-Valine HCl] |  |
|  |  |  |  |  |  |  |  | COCCOCCOCCOC(=O)N[C@H](C(=O)N[C@@H](Cc1ccccc1)[C@H](CN(Cc1ccc(-c2ccccn2)cc1)NC(=O)[C@@H](NC(=O)OC)C(C)(C)C)OP(=O)(O)O)C(C)(C)C [mPEG3-ATV-phosphate, mPEG3-atazanavir phosphate] | AUCall Mean [1]: 16.8 ng·h/mL; Cmax Mean [1]: 1.66 ng/mL; MRT last Mean [1]: 7.37 h; Tmax* Median [1]: 1.25 h |
| 294 ng·h/mL | 13.7 ng/mL | 27.2 h | 30.0 h |  |  |  |  | COCCOCCOCCOCCOCCOCCOC(=O)N[C@H](C(=O)N[C@@H](Cc1ccccc1)[C@H](CN(Cc1ccc(-c2ccccn2)cc1)NC(=O)[C@@H](NC(=O)OC)C(C)(C)C)OC(=O)CNC(=O)[C@@H](N)CC(C)C)C(C)(C)C.Cl [Leu-Gly-mPEG6-ATV, Leu-Gly-mPEG6-Atazanavir Hydrochloride] |  |
| 66.0 ng·h/mL | 11.1 ng/mL | 4.47 h | 2.00 h |  |  |  |  | CCCCCCCC(=O)OC(CN(Cc1ccc(-c2ccccn2)cc1)NC(=O)C(NC(=O)OC)C(C)(C)C)C(Cc1ccccc1)NC(=O)C(NC(=O)OCCOCCOCCOCCOCCOCCOC)C(C)(C)C (stereo not drawn) [C7H15CO-mPEG6-ATV, O-Octanoyl-mPEG6-Atazanavir] |  |
|  |  |  |  | 23.1 ng·h/mL | 1.52 ng/mL | 10.9 h | 7.00 h | COCCOCCOCCOCCOCCOC(=O)N[C@H](C(=O)N[C@@H](Cc1ccccc1)[C@H](CN(Cc1ccc(-c2ccccn2)cc1)NC(=O)[C@@H](NC(=O)OC)C(C)(C)C)OP(=O)(O)O)C(C)(C)C [mPEG5-ATV-phosphate, mPEG5-atazanavir phosphate] |  |

| Compound | AUCall Mean [2] | Cmax Mean [2] | MRT last Mean [2] | Tmax Median [2] | AUCall Mean [3] | Cmax Mean [3] | MRT last Mean [3] | Tmax Median [3] | further results |
| --- | --- | --- | --- | --- | --- | --- | --- | --- | --- |
| COCCOCCOCCOCCOCCOC(=O)NC(C(=O)NC(Cc1ccccc1)C(CN(Cc1ccc(-c2ccccn2)cc1)NC(=O)C(NC(=O)OC)C(C)(C)C)OC(=O)CNC(=O)C(N)CC(C)C)C(C)(C)C.Cl (stereo not drawn) [Leu-Gly-mPEG5-Atazanavir HCl, Leu-Gly-mPEG5-Atazanavir Hydrochloride] |  |  |  |  | 344 ng·h/mL | 19.5 ng/mL | 11.3 h | 12.0 h | C24 Mean [3]: 18.1 |
| CCCC(=O)OC(CN(Cc1ccc(-c2ccccn2)cc1)NC(=O)C(NC(=O)OC)C(C)(C)C)C(Cc1ccccc1)NC(=O)C(NC(=O)OCCOCCOCCOCCOCCOCCOC)C(C)(C)C (stereo not drawn) [C3H7CO-mPEG6-ATV, mPEG6-Atazanavir Butyrate] | 6.16 ng·h/mL | 2.22 ng/mL | 1.36 h | 2.00 h |  |  |  |  | C24 Mean [2]: 0.00 |
| COCCOCCOCCOCCOCCOC(=O)NC(C(=O)NC(Cc1ccccc1)C(CN(Cc1ccc(-c2ccccn2)cc1)NC(=O)C(NC(=O)OC)C(C)(C)C)OC(=O)CNC(=O)C(N)Cc1ccccc1)C(C)(C)C.Cl (stereo not drawn) [Phe-Gly-mPEG5-Atazanavir HCl, Phe-Gly-mPEG5-Atazanavir Hydrochloride] |  |  |  |  | 33.7 ng·h/mL | 3.10 ng/mL | 12.0 h | 12.0 h | C24 Mean [3]: 0.169 |
| CCCC(=O)OC(CN(Cc1ccc(-c2ccccn2)cc1)NC(=O)C(NC(=O)OC)C(C)(C)C)C(Cc1ccccc1)NC(=O)C(NC(=O)OCCOCCOCCOCCOCCOC)C(C)(C)C (stereo not drawn) [C3H7CO-mPEG5-ATV, mPEG5-Atazanavir Butyrate] |  |  |  |  | 3.92 ng·h/mL | 1.44 ng/mL | 0.984 h | 1.00 h | C24 Mean [3]: 0.00 |
